Test results taken from ChEMBL document CHEMBL2034905, “Synthesis of benzimidazolyl-1,3,4-oxadiazol-2ylthio-N-phenyl (benzothiazolyl) acetamides as antibacterial, antifungal and antituberculosis agents” (Eur J Med Chem, 2012).
In brackets after ≈: the same amount, converted by molar mass.

What was measured:
Klebsiella pneumoniae [1] = test: Antibacterial activity against Klebsiella pneumoniae MTCC 109 at 100 ug/disc by paper disc diffusion technique; format: functional; conditions: read-out: IZ
Klebsiella pneumoniae [2] = test: Antibacterial activity against Klebsiella pneumoniae MTCC 109 by agar streak dilution method; format: functional
Aspergillus clavatus [3] = test: Antifungal activity against Aspergillus clavatus MTCC 1323 by agar streak dilution method; format: functional
Escherichia coli [4] = test: Antibacterial activity against Escherichia coli MTCC 739 by agar streak dilution method; format: functional
Aspergillus niger [5] = test: Antifungal activity against Aspergillus niger MTCC 282 by agar streak dilution method; format: functional
Staphylococcus aureus [6] = test: Antibacterial activity against Staphylococcus aureus MTCC 96 at 100 ug/disc by paper disc diffusion technique; format: functional; conditions: read-out: IZ
[7] = test system: Mycobacterium tuberculosis; test: Antituberculosis activity against Mycobacterium tuberculosis H37Rv by BACTEC MGIT method; format: functional
Aspergillus clavatus [8] = test: Antifungal activity against Aspergillus clavatus MTCC 1323 at 100 ug/disc by paper disc diffusion technique; format: functional; conditions: read-out: IZ
Candida albicans [9] = test: Antifungal activity against Candida albicans MTCC 183 by agar streak dilution method; format: functional
Proteus vulgaris [10] = test: Antibacterial activity against Proteus vulgaris MTCC 1771 by agar streak dilution method; format: functional
Aspergillus fumigatus [11] = test: Antifungal activity against Aspergillus fumigatus MTCC 343 at 100 ug/disc by paper disc diffusion technique; format: functional; conditions: read-out: IZ
Escherichia coli [12] = test: Antibacterial activity against Escherichia coli MTCC 739 at 100 ug/disc by paper disc diffusion technique; format: functional; conditions: read-out: IZ
Shigella flexneri [13] = test: Antibacterial activity against Shigella flexneri MTCC 1457 at 100 ug/disc by paper disc diffusion technique; format: functional; conditions: read-out: IZ
Proteus vulgaris [14] = test: Antibacterial activity against Proteus vulgaris MTCC 1771 at 100 ug/disc by paper disc diffusion technique; format: functional; conditions: read-out: IZ
Pseudomonas aeruginosa [15] = test: Antibacterial activity against Pseudomonas aeruginosa MTCC 741 by agar streak dilution method; format: functional
Bacillus cereus [16] = test: Antibacterial activity against Bacillus cereus MTCC 430 at 100 ug/disc by paper disc diffusion technique; format: functional; conditions: read-out: IZ
Candida albicans [17] = test: Antifungal activity against Candida albicans MTCC 183 at 100 ug/disc by paper disc diffusion technique; format: functional; conditions: read-out: IZ
Aspergillus fumigatus [18] = test: Antifungal activity against Aspergillus fumigatus MTCC 343 by agar streak dilution method; format: functional
Salmonella typhi [19] = test: Antibacterial activity against Salmonella typhi MTCC 733 by agar streak dilution method; format: functional, Salmonella enterica subsp. enterica serovar Typhi; conditions: Salmonella enterica
Shigella flexneri [20] = test: Antibacterial activity against Shigella flexneri MTCC 1457 by agar streak dilution method; format: functional
[21] = test system: Mycobacterium tuberculosis; test: Antituberculosis activity against Mycobacterium tuberculosis H37Rv by Lowenstein-Jensen method; format: functional
Staphylococcus aureus [22] = test: Antibacterial activity against Staphylococcus aureus MTCC 96 by agar streak dilution method; format: functional
Pseudomonas aeruginosa [23] = test: Antibacterial activity against Pseudomonas aeruginosa MTCC 741 at 100 ug/disc by paper disc diffusion technique; format: functional; conditions: read-out: IZ
Salmonella typhi [24] = test: Antibacterial activity against Salmonella typhi MTCC 733 at 100 ug/disc by paper disc diffusion technique; format: functional, Salmonella enterica subsp. enterica serovar Typhi; conditions: Salmonella enterica, read-out: IZ
Bacillus cereus [25] = test: Antibacterial activity against Bacillus cereus MTCC 430 by agar streak dilution method; format: functional
Aspergillus niger [26] = test: Antifungal activity against Aspergillus niger MTCC 282 at 100 ug/disc by paper disc diffusion technique; format: functional; conditions: read-out: IZ
[27] = test system: Mycobacterium tuberculosis; test: Antituberculosis activity against Mycobacterium tuberculosis H37Rv at 6.25 ug/ml by Lowenstein-Jensen method; format: functional

| SMILES | zone of inhibition at 100 µg/disc (Klebsiella pneumoniae [1]) | MIC (Klebsiella pneumoniae [2]) | MIC (Aspergillus clavatus [3]) | MIC (Escherichia coli [4]) | MIC (Aspergillus niger [5]) | zone of inhibition at 100 µg/disc (Staphylococcus aureus [6]) | MIC [7] | zone of inhibition at 100 µg/disc (Aspergillus clavatus [8]) | MIC (Candida albicans [9]) | MIC (Proteus vulgaris [10]) | zone of inhibition at 100 µg/disc (Aspergillus fumigatus [11]) | zone of inhibition at 100 µg/disc (Escherichia coli [12]) | zone of inhibition at 100 µg/disc (Shigella flexneri [13]) | zone of inhibition at 100 µg/disc (Proteus vulgaris [14]) | MIC (Pseudomonas aeruginosa [15]) | zone of inhibition at 100 µg/disc (Bacillus cereus [16]) | zone of inhibition at 100 µg/disc (Candida albicans [17]) | MIC (Aspergillus fumigatus [18]) | MIC (Salmonella typhi [19]) | MIC (Shigella flexneri [20]) | also measured |
| --- | --- | --- | --- | --- | --- | --- | --- | --- | --- | --- | --- | --- | --- | --- | --- | --- | --- | --- | --- | --- | --- |
| O=C(CSc1nnc(Cn2cnc3ccccc32)o1)Nc1ccccc1 | 13 mm | 100 µg/mL (≈ 274 µM) | 100 µg/mL (≈ 274 µM) | 100 µg/mL (≈ 274 µM) | 100 µg/mL (≈ 274 µM) | 12 mm | > 6.25 µg/mL | < 10 mm | 100 µg/mL (≈ 274 µM) | 100 µg/mL (≈ 274 µM) | 13 mm | 13 mm | 13 mm | 13 mm | 50 µg/mL (≈ 137 µM) | < 10 mm | < 10 mm | 100 µg/mL (≈ 274 µM) | 100 µg/mL (≈ 274 µM) | 100 µg/mL (≈ 274 µM) | MIC [21]: 500 µg/mL (≈ 1370 µM); MIC (Staphylococcus aureus [22]): 100 µg/mL (≈ 274 µM); zone of inhibition at 100 µg/disc (Pseudomonas aeruginosa [23]): 21 mm; zone of inhibition at 100 µg/disc (Salmonella typhi [24]): < 10 mm; MIC (Bacillus cereus [25]): 100 µg/mL (≈ 274 µM); zone of inhibition at 100 µg/disc (Aspergillus niger [26]): < 10 mm; inhibition at 6.25 µg/mL [27]: 95% |
| O=C(CSc1nnc(Cn2cnc3ccccc32)o1)Nc1nc2ccc([N+](=O)[O-])cc2s1 | 16 mm | 100 µg/mL (≈ 214 µM) | 25 µg/mL (≈ 53.5 µM) | 50 µg/mL (≈ 107 µM) | 12.5 µg/mL (≈ 26.7 µM) | 21 mm | > 6.25 µg/mL | 27 mm | 100 µg/mL (≈ 214 µM) | 100 µg/mL (≈ 214 µM) | 22 mm | 18 mm | 20 mm | 15 mm | 100 µg/mL (≈ 214 µM) | 25 mm | 15 mm | 50 µg/mL (≈ 107 µM) | 50 µg/mL (≈ 107 µM) | 50 µg/mL (≈ 107 µM) | MIC [21]: 50 µg/mL (≈ 107 µM); MIC (Staphylococcus aureus [22]): 12.5 µg/mL (≈ 26.7 µM); zone of inhibition at 100 µg/disc (Pseudomonas aeruginosa [23]): 16 mm; zone of inhibition at 100 µg/disc (Salmonella typhi [24]): 19 mm; MIC (Bacillus cereus [25]): 12.5 µg/mL (≈ 26.7 µM); zone of inhibition at 100 µg/disc (Aspergillus niger [26]): 23 mm; inhibition at 6.25 µg/mL [27]: 98% |
| O=C(CSc1nnc(Cn2cnc3ccccc32)o1)Nc1ccc(F)cc1 | 22 mm | 50 µg/mL (≈ 130 µM) | 100 µg/mL (≈ 261 µM) | 50 µg/mL (≈ 130 µM) | 50 µg/mL (≈ 130 µM) | 18 mm | > 6.25 µg/mL | 17 mm | 100 µg/mL (≈ 261 µM) | 50 µg/mL (≈ 130 µM) | 23 mm | 18 mm | 23 mm | 14 mm | 12.5 µg/mL (≈ 32.6 µM) | 16 mm | 16 mm | 50 µg/mL (≈ 130 µM) | 50 µg/mL (≈ 130 µM) | 12.5 µg/mL (≈ 32.6 µM) | MIC [21]: 50 µg/mL (≈ 130 µM); MIC (Staphylococcus aureus [22]): 25 µg/mL (≈ 65.2 µM); zone of inhibition at 100 µg/disc (Pseudomonas aeruginosa [23]): 24 mm; zone of inhibition at 100 µg/disc (Salmonella typhi [24]): 21 mm; MIC (Bacillus cereus [25]): 50 µg/mL (≈ 130 µM); zone of inhibition at 100 µg/disc (Aspergillus niger [26]): 19 mm; inhibition at 6.25 µg/mL [27]: 97% |
| O=C(CSc1nnc(Cn2cnc3ccccc32)o1)Nc1ccc(I)cc1 | 23 mm | 50 µg/mL (≈ 102 µM) | 100 µg/mL (≈ 204 µM) | 100 µg/mL (≈ 204 µM) | 100 µg/mL (≈ 204 µM) | 17 mm | > 6.25 µg/mL | 13 mm | 100 µg/mL (≈ 204 µM) | 25 µg/mL (≈ 50.9 µM) | 17 mm | 12 mm | 20 mm | 22 mm | 25 µg/mL (≈ 50.9 µM) | 15 mm | 12 mm | 100 µg/mL (≈ 204 µM) | 100 µg/mL (≈ 204 µM) | 50 µg/mL (≈ 102 µM) | MIC [21]: 250 µg/mL (≈ 509 µM); MIC (Staphylococcus aureus [22]): 50 µg/mL (≈ 102 µM); zone of inhibition at 100 µg/disc (Pseudomonas aeruginosa [23]): 22 mm; zone of inhibition at 100 µg/disc (Salmonella typhi [24]): 16 mm; MIC (Bacillus cereus [25]): 100 µg/mL (≈ 204 µM); zone of inhibition at 100 µg/disc (Aspergillus niger [26]): < 10 mm; inhibition at 6.25 µg/mL [27]: 95% |
| CC(=O)Nc1ccc(NC(=O)CSc2nnc(Cn3cnc4ccccc43)o2)cc1 | 13 mm | 100 µg/mL (≈ 237 µM) | 100 µg/mL (≈ 237 µM) | 50 µg/mL (≈ 118 µM) | 25 µg/mL (≈ 59.2 µM) | < 10 mm | > 6.25 µg/mL | 18 mm | 100 µg/mL (≈ 237 µM) | 25 µg/mL (≈ 59.2 µM) | 15 mm | 20 mm | 16 mm | 20 mm | 100 µg/mL (≈ 237 µM) | 11 mm | 18 mm | 100 µg/mL (≈ 237 µM) | 100 µg/mL (≈ 237 µM) | 100 µg/mL (≈ 237 µM) | MIC [21]: 100 µg/mL (≈ 237 µM); MIC (Staphylococcus aureus [22]): 100 µg/mL (≈ 237 µM); zone of inhibition at 100 µg/disc (Pseudomonas aeruginosa [23]): 19 mm; zone of inhibition at 100 µg/disc (Salmonella typhi [24]): < 10 mm; MIC (Bacillus cereus [25]): 100 µg/mL (≈ 237 µM); zone of inhibition at 100 µg/disc (Aspergillus niger [26]): 22 mm; inhibition at 6.25 µg/mL [27]: 95% |
